PubChem BioAssay (NCI)
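Growth conditions: 96-well plates. Treatment: test compound, 48 hours, 5 concentrations. Analysis: linear interpolation between bracketing concentrations; unreached endpoints set to highest concentration. GI50: concentration for 50% inhibition of growth. The concentration for full growth arrest is given as TGI.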

What was measured:
Experiment in all cases: inhibition of tumour cell growth, NCI panel, 48 h
[1] = system: 786-0 renal
[2] = system: ACHN renal
[3] = system: RXF 393 renal
[4] = system: SF-295 CNS
[5] = system: SK-MEL-2 melanoma
[6] = system: SK-MEL-5 melanoma
[7] = system: SK-OV-3 ovarian
[8] = system: SN12C renal
[9] = system: SNB-75 CNS
[10] = system: EKVX NSCLC

Compound: O=C(N/N=C/c1ccc(O)cc1O)c1cccnc1
- GI50 [1]: 4.28 µM
- TGI [1]: > 100 µM
- GI50 [2]: 1.47 µM
- TGI [2]: > 100 µM
- GI50 [3]: 3.74 µM
- TGI [3]: > 100 µM
- GI50 [4]: 6.66 µM
- TGI [4]: > 100 µM
- GI50 [5]: 13.5 µM
- TGI [5]: 60.8 µM
- GI50 [6]: 3.3 µM
- TGI [6]: 27.6 µM
- GI50 [7]: 11.4 µM
- TGI [7]: > 100 µM
- GI50 [8]: 3.58 µM
- TGI [8]: 69 µM
- GI50 [9]: 1.15 µM
- TGI [9]: 26.1 µM

Compound: COC(=O)C(=O)CC(=O)c1cccc(OC)c1
- TGI [1]: > 100 µM
- TGI [2]: > 100 µM
- TGI [10]: > 100 µM
- TGI [3]: > 100 µM
- TGI [4]: > 100 µM
- TGI [6]: > 100 µM
- TGI [7]: > 100 µM
- TGI [8]: > 100 µM
- TGI [9]: > 100 µM

Compound: N#Cc1c(-c2ccco2)cc(-c2ccc(N)cc2)[nH]c1=O
- TGI [1]: > 100 µM
- TGI [2]: > 100 µM
- TGI [10]: > 100 µM
- TGI [3]: > 100 µM
- TGI [4]: > 100 µM
- TGI [6]: > 100 µM
- TGI [7]: > 100 µM
- TGI [8]: > 100 µM
- TGI [9]: > 100 µM

Compound: COc1cc2c(cc1OC)C1Cc3cc(OC)c(OC)cc3N1CC2 (centres undefined)
- TGI [1]: 37.9 µM
- TGI [2]: 43 µM
- TGI [10]: 89.5 µM
- TGI [4]: > 100 µM
- TGI [5]: > 100 µM
- TGI [7]: > 100 µM
- TGI [8]: > 100 µM
- TGI [9]: 56.2 µM

Compound: O=C1C2[C@@H](C(=O)N1c1ccc(Br)cc1)C13C(=CC2([N+](=O)[O-])[C@@H]2C(=O)N(c4ccc(Br)cc4)C(=O)[C@@H]21)c1ccccc1N3c1ccccc1 (some centres undefined)
- TGI [1]: 31.1 µM
- TGI [2]: > 100 µM
- TGI [10]: > 100 µM
- TGI [3]: > 100 µM
- TGI [4]: > 100 µM
- TGI [5]: > 100 µM
- TGI [8]: > 100 µM
- TGI [9]: > 100 µM

Compound: Cn1cc(S(=O)(=O)N2CCC3=Cc4c(cnn4-c4ccc(F)cc4)C[C@]3(C(=O)c3cc(C(F)(F)F)ccn3)C2)cn1
- GI50 [1]: > 100 µM
- TGI [1]: > 100 µM
- GI50 [2]: > 100 µM
- TGI [2]: > 100 µM
- GI50 [10]: 7.98 µM
- TGI [10]: > 100 µM
- GI50 [3]: 5.19 µM
- TGI [3]: > 100 µM
- GI50 [4]: > 100 µM
- TGI [4]: > 100 µM
- GI50 [5]: 88.2 µM
- TGI [5]: > 100 µM
- GI50 [6]: 57.7 µM
- TGI [6]: > 100 µM
- GI50 [8]: > 100 µM
- TGI [8]: > 100 µM
- GI50 [9]: > 100 µM
- TGI [9]: > 100 µM

Compound: CC(=O)[CH-]C(=O)c1ccccc1.CC(=O)[CH-]C(=O)c1ccccc1.O=S(=O)([O-])c1cc([O-])c2c([O-])cc(S(=O)(=O)[O-])cc2c1.[Na+].[Ti+4]
- GI50 [1]: > 100 µM
- TGI [1]: > 100 µM
- GI50 [2]: > 100 µM
- TGI [2]: > 100 µM
- GI50 [10]: > 100 µM
- TGI [10]: > 100 µM
- GI50 [4]: 55.7 µM
- TGI [4]: > 100 µM
- GI50 [5]: > 100 µM
- TGI [5]: > 100 µM
- GI50 [6]: > 100 µM
- TGI [6]: > 100 µM
- GI50 [7]: > 100 µM
- TGI [7]: > 100 µM
- GI50 [8]: > 100 µM
- TGI [8]: > 100 µM
- GI50 [9]: 29.1 µM
- TGI [9]: 87.5 µM

Compound: O=C(Nc1ccc(Cl)cc1)Nc1nccs1
- GI50 [1]: 11.1 µM
- TGI [1]: > 100 µM
- GI50 [2]: 2.25 µM
- TGI [2]: 43 µM
- GI50 [3]: 1.49 µM
- TGI [3]: 6.53 µM
- GI50 [4]: 2.73 µM
- TGI [4]: 34.7 µM
- GI50 [5]: 0.784 µM
- TGI [5]: 43.3 µM
- GI50 [6]: 0.514 µM
- TGI [6]: 15.3 µM
- GI50 [7]: 5.04 µM
- TGI [7]: > 100 µM
- GI50 [8]: 5.22 µM
- TGI [8]: > 100 µM
- GI50 [9]: 2.02 µM
- TGI [9]: > 100 µM

Compound: NC(CCc1ncc(C(=O)O)s1)C(=O)O (centres undefined)
- TGI [1]: > 100 µM
- TGI [2]: > 100 µM
- TGI [10]: > 100 µM
- TGI [3]: > 100 µM
- TGI [4]: > 100 µM
- TGI [6]: > 100 µM
- TGI [7]: > 100 µM
- TGI [8]: > 100 µM
- TGI [9]: > 100 µM

Compound: COc1ccc(-c2ccc(NNC(=O)c3ccc(F)cc3)nn2)cc1OC
- GI50 [1]: > 100 µM
- TGI [1]: > 100 µM
- GI50 [2]: > 100 µM
- TGI [2]: > 100 µM
- GI50 [10]: > 100 µM
- TGI [10]: > 100 µM
- GI50 [3]: 63 µM
- TGI [3]: > 100 µM
- GI50 [4]: > 100 µM
- TGI [4]: > 100 µM
- GI50 [6]: 45 µM
- TGI [6]: > 100 µM
- GI50 [7]: > 100 µM
- TGI [7]: > 100 µM
- GI50 [8]: > 100 µM
- TGI [8]: > 100 µM
- GI50 [9]: 26.9 µM
- TGI [9]: > 100 µM

Compound: Cc1ccc(C)c(N2C(=O)C(=O)C(c3nc4ccccc4o3)/C(=N\NC(=O)c3ccccc3O)C2=O)c1 (centres undefined)
- TGI [1]: > 100 µM
- TGI [2]: > 100 µM
- TGI [10]: > 100 µM
- TGI [4]: > 100 µM
- TGI [5]: > 100 µM
- TGI [6]: > 100 µM
- TGI [7]: > 100 µM
- TGI [8]: > 100 µM
- TGI [9]: > 100 µM

Compound: N#CC(C#N)=C1CCCOc2c1ccc1ccccc21
- GI50 [1]: 88.2 µM
- TGI [1]: > 100 µM
- GI50 [2]: > 100 µM
- TGI [2]: > 100 µM
- GI50 [10]: 46.8 µM
- TGI [10]: > 100 µM
- GI50 [3]: > 100 µM
- TGI [3]: > 100 µM
- GI50 [4]: > 100 µM
- TGI [4]: > 100 µM
- GI50 [7]: > 100 µM
- TGI [7]: > 100 µM
- GI50 [8]: > 100 µM
- TGI [8]: > 100 µM

Compound: c1ccc2c(c1)c1ccccc1c1ccccc21
- GI50 [1]: > 100 µM
- TGI [1]: > 100 µM
- GI50 [2]: > 100 µM
- TGI [2]: > 100 µM
- GI50 [3]: > 100 µM
- TGI [3]: > 100 µM
- GI50 [5]: > 100 µM
- TGI [5]: > 100 µM
- GI50 [6]: > 100 µM
- TGI [6]: > 100 µM
- GI50 [7]: > 100 µM
- TGI [7]: > 100 µM
- GI50 [8]: > 100 µM
- TGI [8]: > 100 µM
- GI50 [9]: > 100 µM
- TGI [9]: > 100 µM

Compound: COc1cc(/C=C2\CCC/C(=C\c3ccc(OCC4CO4)c(OC)c3)C2=O)ccc1OCC1CO1 (centres undefined)
- GI50 [1]: 2.04 µM
- TGI [1]: 3.85 µM
- GI50 [3]: 1.6 µM
- TGI [3]: 3.05 µM
- GI50 [4]: 4.35 µM
- TGI [4]: 84.4 µM
- GI50 [5]: 2.43 µM
- TGI [5]: 5.37 µM
- GI50 [6]: 1.74 µM
- TGI [6]: 3.52 µM
- GI50 [7]: 3.54 µM
- TGI [7]: 10.7 µM
- GI50 [8]: 2.84 µM
- TGI [8]: 8.71 µM
- GI50 [9]: 2.92 µM
- TGI [9]: 19.1 µM

Compound: O=C1C=CC(=CC=C2C=CN(CCCCCCCCCCC(=O)NCCCCCCCCCCCC(=O)O)C=C2)C=C1
- TGI [1]: > 100 µM
- TGI [2]: > 100 µM
- TGI [10]: > 100 µM
- TGI [3]: > 100 µM
- TGI [4]: > 100 µM
- TGI [6]: > 100 µM
- TGI [7]: > 100 µM
- TGI [8]: > 100 µM
- TGI [9]: > 100 µM

Compound: Cc1ccc(N2C(=O)N(c3ccc(C)cc3)C3(SC=NN3C)C2=O)cc1 (centres undefined)
- TGI [1]: > 100 µM
- TGI [2]: > 100 µM
- TGI [10]: > 100 µM
- TGI [3]: > 100 µM
- TGI [4]: > 100 µM
- TGI [6]: > 100 µM
- TGI [7]: > 100 µM
- TGI [8]: > 100 µM
- TGI [9]: > 100 µM

Compound: C[Si](C)(C)CN1C(=O)c2ccccc2C1(O)c1ccccc1 (centres undefined)
- TGI [1]: > 100 µM
- TGI [2]: > 100 µM
- TGI [10]: > 100 µM
- TGI [3]: > 100 µM
- TGI [4]: > 100 µM
- TGI [5]: > 100 µM
- TGI [6]: > 100 µM
- TGI [8]: > 100 µM
- TGI [9]: > 100 µM

Compound: CC1COS(=O)O1 (centres undefined)
- TGI [1]: > 100 µM
- TGI [2]: > 100 µM
- TGI [10]: > 100 µM
- TGI [4]: > 100 µM
- TGI [5]: > 100 µM
- TGI [6]: > 100 µM
- TGI [7]: > 100 µM
- TGI [8]: > 100 µM
- TGI [9]: > 100 µM
